Experimental data taken from patent US20250042911A1, “NOVEL BENZOPYRAN DERIVATIVE AND USE THEREOF” (SPARK BIOPHARMA, INC, priority 2021, published 2025).
pEC50: −log10 of the molar value. Structures can show the parent of a compound that is named as a salt.

What was measured:
human M2 macrophages = experiment: Inhibition of human M2 macrophage activity, hCCL22 in culture supernatant by ELISA; format: cell-based; conditions: hCCL22 secretion, THP-1 derived M2-like macrophages, compound present during 72 hours of differentiation
Outline: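 THP-1 monocytes were differentiated with 100 ng/mL PMA for 24 h, then polarized with 25 ng/mL hIL-4 plus 25 ng/mL hIL-13 for 72 h. Compounds were present throughout the 72 h polarization. CCL22 in the supernatant was quantified by ELISA to give inhibition or EC50.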

melanoma cells (B316F10) = experiment: Tumor growth inhibition in C57BL/6 syngeneic mouse model implanted with melanoma cells; format: in vivo; conditions: 20 mg/kg orally once a day for 9 or 10 days, female C57BL/6 mice with implanted melanoma cells, tumor volume vs control group; for inhibition in vivo at 20 mg/kg: Mus musculus, po, read-out: TGI (%)
Protocol: The tumor growth inhibition effect of benzopyrene derivatives was evaluated in a C57BL/6 mouse tumor model (syngeneic mouse model) in which melanoma cells (B316F10) derived from C57BL/6 mice are implanted.
After the quarantine and acclimation period was over, a cell suspension prepared with 5×10^5 cells/0.1 mL PBS was filled into a disposable syringe and administered in an amount of 0.1 mL PBS/head subcutaneously to the right back of healthy test animals (female C57BL/6, 7 weeks old) for implantation. After cell line implantation, general symptoms were observed once daily during the engraftment and growth period. Animals with no abnormalities in their health and whose tumor volume reached 50 to 100 mm^3 when measured with a digital caliper were selected. Then, based on tumor volume and body weight, the groups were separated so that the average tumor volume per group was 70 to 100 mm^3. Ten (10) animals were separated per group, and 20 mg/kg of benzopyran derivatives were administered orally once a day for 9 or 10 days. Tumor volume was measured once every 2 or 3 days.
The measured tumor volume of the test compound administered groups was compared with that of the control group and is represented in Table 2 as the tumor growth inhibition (TGI, %).

SMILES | pEC50 (human M2 macrophages) | inhibition in vivo at 20 mg/kg (melanoma cells (B316F10)) [%] | TGI (%) (melanoma cells (B316F10); phosphate)
CCN(c1ccc2c(c1)OC(C)(C)C1=CCn3c(=O)n(-c4ccc(C(C)=O)cc4)c(=O)n3C12)C(C)C (stereo not drawn) [Example 46, 2-(4-acetylphenyl)-10-(ethyl(isopropyl)amino)-7,7-dimethyl-5,12b-dihydro-1H,7H-chromeno[4,3-c][1,2,4]triazolo[1,2-a]pyridazine-1,3(2H)-dione] | 5.15 | 25 to 66 | 
CC(=O)c1ccc(-n2c(=O)n3n(c2=O)C2C(=CC3)C(C)(C)Oc3cc(OC(=O)N(C)C)ccc32)cc1 (stereo not drawn) [Example 62, 2-(4-acetylphenyl)-7,7-dimethyl-1,3-dioxo-2,3,5,12b-tetrahydro-1H,7H-chromeno[4,3-c][1,2,4]triazolo[1,2-a]pyridazin-10-yl dimethylcarbamate] | 4.38 | 32.3 | 
CC(=O)C(=O)N1CCN(C(=O)Oc2ccc3c(c2)OC(C)(C)C2=CCn4c(=O)n(-c5ccc(C(C)=O)cc5)c(=O)n4C23)CC1 (stereo not drawn) [Example 68, 2-(4-acetylphenyl)-7,7-dimethyl-1,3-dioxo-2,3,5,12b-tetrahydro-1H,7H-chromeno[4,3-c][1,2,4]triazolo[1,2-a]pyridazin-10-yl 4-(2-oxopropanoyl)piperazine-1-carboxylate] | 4.13 | 25 to 66 | 
CC(=O)c1ccc(-n2c(=O)n3n(c2=O)C2C(=CC3)C(C)(C)Oc3cc(OP(=O)(O)O)ccc32)cc1 (stereo not drawn) [Example 70, disodium 2-(4-acetylphenyl)-7,7-dimethyl-1,3-dioxo-2,3,5,12b-tetrahydro-1H,7H-chromeno[4,3-c][1,2,4]triazolo[1,2-a]pyridazin-10-yl phosphate] | 5.03 |  | 26.2
CC(=O)c1ccc(-n2c(=O)n3n(c2=O)C2C(=CC3)C(C)(C)Oc3cc(OC(=O)CN(C)C)ccc32)cc1 (stereo not drawn) [Example 72, 2-(4-acetylphenyl)-7,7-dimethyl-1,3-dioxo-2,3,5,12b-tetrahydro-1H,7H-chromeno[4,3-c][1,2,4]triazolo[1,2-a]pyridazin-10-yl dimethylglycinate hydrochloride] | 5.33 | 25 to 66 | 
CC(=O)c1ccc(-n2c(=O)n3n(c2=O)C2C(=CC3)C(C)(C)Oc3cc(OC(=O)N4CCN(C(=O)[C@@H]5CCCN5)CC4)ccc32)cc1 (stereo partly drawn) [Example 82, 2-(4-acetylphenyl)-7,7-dimethyl-1,3-dioxo-2,3,5,12b-tetrahydro-1H,7H-chromeno[4,3-c][1,2,4]triazolo[1,2-a]pyridazin-10-yl 4-(L-prolyl)piperazine-1-carboxylate hydrochloride] | 4.16 | 66.3 | 
